Results on 48 compounds are retold here after article PMC3265452 (PLoS Neglected Tropical Diseases, 2012).

Molecules are shown by their SMILES. Structures can show the parent of a compound that is named as a salt.

For one assay, the target named is AaDOP2 (Aedes aegypti, UniProt H6D5H2). Briefly: AaDOP2 antagonist screen of the LOPAC1280 library (HEK-CRELuc-Aadop2 cells, luminescence). It is filed as cell-based.
Sequence of AaDOP2 (H6D5H2 1-476): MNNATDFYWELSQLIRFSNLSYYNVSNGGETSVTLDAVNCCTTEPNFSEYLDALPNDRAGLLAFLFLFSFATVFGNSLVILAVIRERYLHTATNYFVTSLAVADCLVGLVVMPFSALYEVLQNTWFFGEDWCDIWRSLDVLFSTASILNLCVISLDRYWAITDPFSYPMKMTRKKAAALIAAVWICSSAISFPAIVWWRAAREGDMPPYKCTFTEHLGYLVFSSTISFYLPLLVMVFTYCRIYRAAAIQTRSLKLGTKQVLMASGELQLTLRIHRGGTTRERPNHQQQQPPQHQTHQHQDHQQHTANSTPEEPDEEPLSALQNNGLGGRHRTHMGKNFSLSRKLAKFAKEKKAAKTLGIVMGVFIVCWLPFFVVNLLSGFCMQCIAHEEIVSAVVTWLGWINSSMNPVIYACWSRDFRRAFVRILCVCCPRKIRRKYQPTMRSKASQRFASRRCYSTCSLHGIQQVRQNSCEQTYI
Details: not given
Consider `Cl.Cn1ccc2cc3c(cc21)CCN3C(=O)Nc1cccnc1` [Compound 1141, SB 206553 hydrochloride], for which the “Compound effect (percent receptor signaling in presence of test compound, relative lux units relative to the SCH23390 control)” value stood at 73. Still for that read-out and setting: as for `N[C@@H](Cc1c[nH]c2ccccc12)C(=O)O` [Compound 1143, L-Tryptophan], the figure is 114; as for `COc1ccc(/C=C/C(=O)Nc2ccccc2C(=O)O)cc1OC` [Compound 1144, Tranilast], 73. The same measure, in the same setting: as for `CCN(CC)CCNC(=O)c1cc(S(C)(=O)=O)ccc1OC` [Compound 1145, Tiapride hydrochloride], the figure is 96; as for `NCCS(=O)(=O)O` [Compound 1146, Taurine], 101. Still for that read-out and setting: as for `CCCCNC(=O)NS(=O)(=O)c1ccc(C)cc1` [Compound 1148, Tolbutamide], the figure is 112; as for `Clc1cnc(Oc2ccc(Oc3ncc(Cl)cc3Cl)cc2)c(Cl)c1` [Compound 1150, TCPOBOP], 91. On to `CC(C)NP(=O)(NC(C)C)OP(=O)(NC(C)C)NC(C)C` [Compound 1151, Tetraisopropyl pyrophosphoramide], for which the “Compound effect (percent receptor signaling in presence of test compound, relative lux units relative to the SCH23390 control)” value turned out to be 111. Same read-out and setting: the same measure for `c1ccc(C2CN3CCSC3=N2)cc1` (stereo not drawn) [Compound 1152, Tetramisole hydrochloride]: 118; for `OC(CCN1CCCCC1)(c1ccccc1)C1CCCCC1` (stereo not drawn) [Compound 1153, Trihexyphenidyl hydrochloride]: 92. On the same count and under the same terms, the same measure for `Cn1c(=O)c2[nH]cnc2n(C)c1=O` [Compound 1154, Theophylline]: 98. On the same count and under the same terms, the same measure for `NC/C=C/C(=O)O` [Compound 1155, (E)-4-amino-2-butenoic acid]: 126. `CCCCCCCCCCCCCCSCC(=O)O` [Compound 1156, Tetradecylthioacetic acid]: the “Compound effect (percent receptor signaling in presence of test compound, relative lux units relative to the SCH23390 control)” value is 101. Same read-out and setting: the same measure for `COc1cc2c(cc1OC)-c1c/c(=N\c3c(C)cc(C)cc3C)n(C)c(=O)n1CC2` [Compound 1157, Trequinsin hydrochloride]: 133. Same read-out and setting: as for `CC(C)(C)c1cc(/C=C(\C#N)C(N)=S)cc(C(C)(C)C)c1O` [Compound 1158, Tyrphostin AG 879], the figure is 33. Turning to `CC[N+](CC)(CC)CC` [Compound 1159, Tetraethylammonium chloride], the “Compound effect (percent receptor signaling in presence of test compound, relative lux units relative to the SCH23390 control)” value is recorded as 108.

Regarding `Cc1ccc(S(=O)(=O)NC(=O)NN2CCCCCC2)cc1` [Compound 1160, Tolazamide], the “Compound effect (percent receptor signaling in presence of test compound, relative lux units relative to the SCH23390 control)” value is recorded as 107. The same measure, in the same setting: as for `CN(C)CCCN1c2ccccc2Sc2ccc(C(F)(F)F)cc21` [Compound 1163, Triflupromazine hydrochloride], the figure is 12; as for `CC(CN(C)C)CN1c2ccccc2CCc2ccccc21` (stereo not drawn) [Compound 1164, Trimipramine maleate], 13; as for `N#C/C(=C\c1ccc(O)c(O)c1)C(=O)NCc1ccccc1` [Compound 1165, Tyrphostin AG 490], 96.

For the compound `COc1cc2nc(N3CCN(C(=O)OCc4ccccc4)[C@H](C(=O)NC(C)(C)C)C3)nc(N)c2cc1OC` [Compound 1167, L-765,314], the “Compound effect (percent receptor signaling in presence of test compound, relative lux units relative to the SCH23390 control)” value is on record as 112. As for `Nc1nc(N)c2nc(-c3ccccc3)c(N)nc2n1` [Compound 1168, Triamterene], the “Compound effect (percent receptor signaling in presence of test compound, relative lux units relative to the SCH23390 control)” value is listed as 115. On to `COc1cc2ncnc(Nc3cccc(Cl)c3)c2cc1OC` [Compound 1169, Tyrphostin AG 1478], for which the “Compound effect (percent receptor signaling in presence of test compound, relative lux units relative to the SCH23390 control)” value is on record as 88. For the compound `c1ccc2c(c1)CCCC2C1=NCCN1` (stereo not drawn) [Compound 1170, Tetrahydrozoline hydrochloride], the “Compound effect (percent receptor signaling in presence of test compound, relative lux units relative to the SCH23390 control)” value is reported as 102. Same read-out and setting: as for `N#C/C(=C\c1ccc(O)c(O)c1)C(=O)Nc1ccccc1` [Compound 1171, Tyrphostin AG 494], the figure is 83; as for `C[C@@H](NC(=O)/C(C#N)=C/c1ccc(O)c(O)c1)c1ccccc1` [Compound 1174, Tyrphostin AG 527], 81. As to `Cn1cnc2c1c(=O)[nH]c(=O)n2C` [Compound 1175, Theobromine], the “Compound effect (percent receptor signaling in presence of test compound, relative lux units relative to the SCH23390 control)” value came out at 110. Take `N#C/C(=C\c1ccc(O)c(O)c1)C(=O)N1CCc2ccccc21` [Compound 1177, Tyrphostin AG 528]: the “Compound effect (percent receptor signaling in presence of test compound, relative lux units relative to the SCH23390 control)” value stood at 78. The same measure, in the same setting: the same measure for `COc1cc2nc(N3CCN(C(=O)C4CCCO4)CC3)nc(N)c2cc1OC` (stereo not drawn) [Compound 1178, Terazosin hydrochloride]: 107; for `N#C/C(=C\c1ccc(O)c(O)c1)C(=O)NCCCNC(=O)/C(C#N)=C/c1ccc(O)c(O)c1` [Compound 1179, Tyrphostin AG 537]: 112. Same read-out and setting: as for `N#C/C(=C\c1ccc(O)c(O)c1)C(=O)NCCCc1ccccc1` [Compound 1180, Tyrphostin AG 555], the figure is 77; as for `N#C/C(=C\c1ccc(O)c(O)c1)C(=O)NCCc1ccccc1` [Compound 1181, Tyrphostin AG 698], 82.

Turning to `N#C/C(=C\c1c[nH]c2ccccc12)C(=O)c1ccc(O)c(O)c1` [Compound 1182, Tyrphostin AG 808], the “Compound effect (percent receptor signaling in presence of test compound, relative lux units relative to the SCH23390 control)” value came out at 101. Still for that read-out and setting: as for `CC(C)(C)NCC(O)c1ccccc1Cl` (stereo not drawn) [Compound 1187, Tulobuterol hydrochloride], the figure is 104. Regarding `O=c1n(CCCN2CCN(c3cccc(Cl)c3)CC2)nc2ccccn12` [Compound 1188, Trazodone hydrochloride], the “Compound effect (percent receptor signaling in presence of test compound, relative lux units relative to the SCH23390 control)” value came to 97.

As to `COc1cc(C=C(C#N)C#N)cc(O)c1O` [Compound 1189, Tyrphostin AG 34], the “Compound effect (percent receptor signaling in presence of test compound, relative lux units relative to the SCH23390 control)” value stood at 74.

As to `C[C@]12C=CC(=O)C=C1CC[C@H]1[C@@H]3C[C@@H](O)[C@](O)(C(=O)CO)[C@@]3(C)C[C@H](O)[C@@]12F` [Compound 1190, Triamcinolone], the “Compound effect (percent receptor signaling in presence of test compound, relative lux units relative to the SCH23390 control)” value was 108.

Turning to `CC(COc1ccc(/C=C/c2ccccc2)cc1)[N+](C)(C)C.[I-]` (stereo not drawn) [Compound 1192, N,N,N-trimethyl-1-(4-trans-stilbenoxy)-2-propylammonium iodide], the “Compound effect (percent receptor signaling in presence of test compound, relative lux units relative to the SCH23390 control)” value amounted to 79. Same read-out and setting: as for `N#CC(C#N)=C(N)/C(C#N)=C/c1ccc(O)cc1` [Compound 1194, Tyrphostin AG 112], the figure is 118; as for `N#CC(C#N)=Cc1ccc(O)c(O)c1` [Compound 1196, Tyrphostin 23], 79.

The assay is the same for the next values; noted with them: 10 µM compound, 300 nM dopamine, 2 hr.
Regarding `CN1CCN(CC/C=C2/c3ccccc3Sc3ccc(S(=O)(=O)N(C)C)cc32)CC1.Cl` [Compound 1147, Thiothixene hydrochloride], the “% of the SCH23390 effect (percent inhibition of receptor response relative to the SCH23390 control)” value was found to be 86%.

The assay is the same for the next values; noted with them: 10 µM compound, 300 nM dopamine, 2 hr; hit = compound effect <20.
`CCN(CC)CCOC(=O)c1cc(Cl)c(N)cc1OC.Cl` [Compound 1140, SDZ-205,557 hydrochloride]: the “Compound effect (percent receptor signaling in presence of test compound, relative lux units relative to the SCH23390 control)” value is listed as 96%. Consider `CN1CCN(CC/C=C2/c3ccccc3Sc3ccc(S(=O)(=O)N(C)C)cc32)CC1.Cl` [Compound 1147, Thiothixene hydrochloride], for which the “Compound effect (percent receptor signaling in presence of test compound, relative lux units relative to the SCH23390 control)” value was 14%. The same measure, in the same setting: as for `CCN(CC)C(=S)SSC(=S)N(CC)CC` [Compound 1149, Tetraethylthiuram disulfide], the figure is 89%; as for `CC(C)(C)NCC(O)c1cc(O)cc(O)c1.CC(C)(C)NCC(O)c1cc(O)cc(O)c1.O=S(=O)(O)O` (stereo not drawn) [Compound 1161, Terbutaline hemisulfate], 119%.

On to `C/C(=C\c1ccc(C(=O)O)cc1)c1ccc2c(c1)C(C)(C)CCC2(C)C` [Compound 1166, TTNPB], for which the “Compound effect (percent receptor signaling in presence of test compound, relative lux units relative to the SCH23390 control)” value is reported as 98%. Regarding `Cc1ccc(S(=O)(=O)N[C@@H](Cc2ccccc2)C(=O)CCl)cc1` [Compound 1172, N-p-Tosyl-L-phenylalanine chloromethyl ketone], the “Compound effect (percent receptor signaling in presence of test compound, relative lux units relative to the SCH23390 control)” value amounted to 83%. Still for that read-out and setting: as for `CC(O)C(O)[C@H]1CNc2nc(N)[nH]c(=O)c2N1.Cl.Cl` (stereo partly drawn) [Compound 1173, (6R)-5,6,7,8-Tetrahydro-L-biopterin hydrochloride], the figure is 109%; as for `Cc1ccc(/C(=C\CN2CCCC2)c2ccccn2)cc1.Cl` [Compound 1193, Triprolidine hydrochloride], 78%.

Staying with this assay, now noted: read-out: % of the SCH23390 effect (percent inhibition of receptor response relative to the SCH23390 control).
The term inhibition denotes the drop in the measured response relative to a control, in per cent. As to `CN(C)CCCN1c2ccccc2Sc2ccc(C(F)(F)F)cc21` [Compound 1163, Triflupromazine hydrochloride], the inhibition at 10 µM turned out to be 88%.

Regarding `CC(CN(C)C)CN1c2ccccc2CCc2ccccc21` (stereo not drawn) [Compound 1164, Trimipramine maleate], the inhibition at 10 µM came out at 87%.
